Results published in ChEMBL document CHEMBL1201862, “PubChem BioAssay data set” (2004).
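Following 48 hours of exposure in 96-well plates, responses at five concentrations were used to interpolate endpoints linearly. GI50 is the concentration that inhibits growth by half.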 Active and inactive are the calls of the source. No stated cut-off is given here; in the data, active = GI50 up to about 1.1 µM and inactive = higher.

Legend:
Assay in all cases: NCI anticancer screen, dose series, 48 h
UACC-62 = system: UACC-62
KM12 = system: KM12
MOLT-4 = system: MOLT-4
SNB-19 = system: SNB-19
HCT-116 = system: HCT-116
ACHN = system: ACHN
SK-MEL-5 = system: SK-MEL-5
K562 = system: K562
SR = system: SR
HT-29 = system: HT-29
A549 = system: A549
COLO 205 = system: COLO 205
NCI/ADR-RES = system: NCI/ADR-RES
IGROV-1 = system: IGROV-1
LOX IMVI = system: LOX IMVI
NCI-H226 = system: NCI-H226
NCI-H460 = system: NCI-H460
SW-620 = system: SW-620
EKVX = system: EKVX
SF-539 = system: SF-539

| Compound | GI50 (UACC-62) | GI50 (KM12) | GI50 (MOLT-4) | GI50 (SNB-19) | GI50 (HCT-116) | GI50 (ACHN) | GI50 (SK-MEL-5) | GI50 (K562) | GI50 (SR) | GI50 (HT-29) | GI50 (A549) | GI50 (COLO 205) | GI50 (NCI/ADR-RES) | GI50 (IGROV-1) | GI50 (LOX IMVI) | GI50 (NCI-H226) | GI50 (NCI-H460) | GI50 (SW-620) | GI50 (EKVX) | GI50 (SF-539) |
| --- | --- | --- | --- | --- | --- | --- | --- | --- | --- | --- | --- | --- | --- | --- | --- | --- | --- | --- | --- | --- |
| CC1(C)COP(=S)(c2ccccn2)O[C@@H]1c1ccccc1 (some centres not stated) | > 100 µM (inactive) | > 100 µM (inactive) | 30.1 µM (inactive) | > 100 µM (inactive) | 42.8 µM (inactive) | > 100 µM (inactive) | 26.9 µM (inactive) | 41.6 µM (inactive) | 30 µM (inactive) | 81.8 µM (inactive) | 81.3 µM (inactive) | 38.3 µM (inactive) | 66.1 µM (inactive) | > 100 µM (inactive) | > 100 µM (inactive) | 37.9 µM (inactive) | > 100 µM (inactive) | > 100 µM (inactive) | > 100 µM (inactive) | – |
| Cc1ccnc(NC(NC(=O)c2ccccc2)(C(F)(F)F)C(F)(F)F)c1 | > 100 µM (inactive) | > 100 µM (inactive) | > 100 µM (inactive) | > 100 µM (inactive) | > 100 µM (inactive) | > 100 µM (inactive) | > 100 µM (inactive) | > 100 µM (inactive) | 41.1 µM (inactive) | > 100 µM (inactive) | > 100 µM (inactive) | > 100 µM (inactive) | > 100 µM (inactive) | > 100 µM (inactive) | > 100 µM (inactive) | > 100 µM (inactive) | – | > 100 µM (inactive) | > 100 µM (inactive) | > 100 µM (inactive) |
| CCOC(=O)C1=NN(c2ccc([N+](=O)[O-])cc2)[C@@]2(C)C[C@]3(c4ccccc4)N(c4ccc([N+](=O)[O-])cc4)N=C(C(=O)OCC)N3c3ccccc3N12 | > 100 µM (inactive) | > 100 µM (inactive) | > 100 µM (inactive) | > 100 µM (inactive) | > 100 µM (inactive) | > 100 µM (inactive) | > 100 µM (inactive) | > 100 µM (inactive) | > 100 µM (inactive) | > 100 µM (inactive) | > 100 µM (inactive) | > 100 µM (inactive) | > 100 µM (inactive) | > 100 µM (inactive) | > 100 µM (inactive) | > 100 µM (inactive) | – | > 100 µM (inactive) | > 100 µM (inactive) | > 100 µM (inactive) |
| Cc1ccccc1N/N=C1\C(=O)Nc2ccccc21 | > 100 µM (inactive) | > 100 µM (inactive) | > 100 µM (inactive) | > 100 µM (inactive) | > 100 µM (inactive) | > 100 µM (inactive) | > 100 µM (inactive) | > 100 µM (inactive) | > 100 µM (inactive) | > 100 µM (inactive) | > 100 µM (inactive) | 95.1 µM (inactive) | > 100 µM (inactive) | 0.0132 µM (active) | > 100 µM (inactive) | 41.7 µM (inactive) | > 100 µM (inactive) | > 100 µM (inactive) | > 100 µM (inactive) | – |
| CC(=O)N(C(=O)CC(=O)N/N=C\c1ccc(Br)c(N(CCC#N)CCC#N)c1)c1ccc(Cl)cc1 | 7.55 µM (inactive) | 14.1 µM (inactive) | 42.6 µM (inactive) | 25.9 µM (inactive) | 62.4 µM (inactive) | 14.5 µM (inactive) | – | 60 µM (inactive) | 44.2 µM (inactive) | – | 27.4 µM (inactive) | 69.8 µM (inactive) | 52.8 µM (inactive) | 21.4 µM (inactive) | 33.9 µM (inactive) | 36.1 µM (inactive) | 74.5 µM (inactive) | 93.3 µM (inactive) | 60.5 µM (inactive) | 71.4 µM (inactive) |
| COc1ccccc1-c1cc(=O)c2ccc(OC)c(OC)c2o1 | 51.5 µM (inactive) | – | 60.4 µM (inactive) | 82.2 µM (inactive) | 45.9 µM (inactive) | 39.4 µM (inactive) | 27.7 µM (inactive) | > 100 µM (inactive) | > 100 µM (inactive) | 34.3 µM (inactive) | 45.6 µM (inactive) | 49.3 µM (inactive) | 26.4 µM (inactive) | 97.1 µM (inactive) | 33.1 µM (inactive) | > 100 µM (inactive) | 49.5 µM (inactive) | 96.2 µM (inactive) | 58.7 µM (inactive) | > 100 µM (inactive) |
| O=C(CCCn1ccnc1[N+](=O)[O-])NCCn1cncc1[N+](=O)[O-] | > 100 µM (inactive) | > 100 µM (inactive) | > 100 µM (inactive) | – | > 100 µM (inactive) | > 100 µM (inactive) | > 100 µM (inactive) | > 100 µM (inactive) | > 100 µM (inactive) | > 100 µM (inactive) | > 100 µM (inactive) | > 100 µM (inactive) | > 100 µM (inactive) | > 100 µM (inactive) | > 100 µM (inactive) | > 100 µM (inactive) | > 100 µM (inactive) | > 100 µM (inactive) | > 100 µM (inactive) | > 100 µM (inactive) |
